{"source": "EPA's ToxRefDB 2", "key": {"dog [1]": {"test_system": "dog", "settings": "Sub-acute repeat dose toxicity, beagle, Oral, Gavage/Intubation, dose end: 4 week, group: systemic"}, "primate": {"test_system": "primate", "settings": "Sub-acute repeat dose toxicity, macaque, Oral, Gavage/Intubation, dose end: 4 week, group: systemic"}, "dog [2]": {"test_system": "dog", "settings": "Sub-acute repeat dose toxicity, beagle, Oral, Gavage/Intubation, dose end: 4 week, group: systemic", "remark": "listed apart in the source"}, "rabbit": {"test_system": "rabbit", "settings": "Prenatal developmental toxicity study; himalayan; Oral; Gavage/Intubation; dose end: 18 GD; group: maternal; systemic / in life observation / clinical signs / defecation + systemic / in life observation / clinical signs / feces, discoloration + …"}, "rat [3]": {"test_system": "rat", "settings": "Sub-acute repeat dose toxicity; sprague dawley; Oral; Gavage/Intubation; dose end: 4 week; group: systemic; systemic / organ weight / liver / absolute + systemic / organ weight / liver / relative to body weight"}, "mouse [4]": {"test_system": "mouse", "settings": "Carcinogenicity, cd1, Oral, Feed, dose end: 22 month, group: systemic"}, "rat [5]": {"test_system": "rat", "settings": "Multigenerational reproductive toxicity study, sprague dawley, Oral, Feed, dose end: 2 generation"}, "rat [6]": {"test_system": "rat", "settings": "Combined chronic toxicity/carcinogenicity, sprague dawley, Oral, Feed, dose end: 104 week, group: systemic"}, "rat [7]": {"test_system": "rat", "settings": "Combined chronic toxicity/carcinogenicity, fischer, Oral, Feed, dose end: 103 week, group: systemic"}, "mouse [8]": {"test_system": "mouse", "settings": "Combined chronic toxicity/carcinogenicity; b6c3f1; Oral; Feed; dose end: 103 week; group: systemic; systemic / in life observation / body weight / body weight"}, "rat [9]": {"test_system": "rat", "settings": "Prenatal developmental toxicity study, sprague dawley, Injection, Intramuscular, dose end: 13 GD"}, "rat [10]": {"test_system": "rat", "settings": "Prenatal developmental toxicity study; sprague dawley; Injection; Intramuscular; dose end: 14 GD; group: developmental; developmental / developmental malformation / mouth / jaw / cleft palate + developmental / developmental malformation / trunk / umbilical …"}, "[11]": {"settings": "systemic / clinical chemistry / alanine aminotransferase (alt/sgpt) / alanine aminotransferase (alt/sgpt) + systemic / clinical chemistry / …"}, "[12]": {"settings": "systemic / clinical chemistry / alkaline phosphatase (alp/alk) / alkaline phosphatase (alp/alk)"}, "[13]": {"settings": "systemic / clinical chemistry / bilirubin / total bilirubin + systemic / organ weight / liver / relative to body weight + systemic / …"}, "[14]": {"settings": "systemic / pathology microscopic / liver / granuloma + systemic / pathology microscopic / liver / infiltration cellular + systemic / …"}, "[15]": {"settings": "systemic / clinical chemistry / alkaline phosphatase (alp/alk) / alkaline phosphatase (alp/alk) + systemic / pathology microscopic / liver…"}, "[16]": {"settings": "systemic / pathology microscopic / liver / pigmentation"}, "[17]": {"settings": "systemic / in life observation / body weight / body weight + systemic / in life observation / body weight / body weight gain + systemic / in…"}, "[18]": {"settings": "group: offspring, systemic / in life observation / body weight / offspring (pup) weight"}, "[19]": {"settings": "group: parental, systemic / in life observation / body weight / body weight + systemic / in life observation / body weight / body weight gain"}, "[20]": {"settings": "systemic / in life observation / body weight / body weight + systemic / in life observation / body weight / body weight gain"}, "[21]": {"settings": "systemic / in life observation / body weight / body weight + systemic / in life observation / body weight / body weight gain + systemic / …"}, "[22]": {"settings": "systemic / pathology microscopic / pancreas / adenoma/carcinoma combined"}, "[23]": {"settings": "group: developmental, developmental / developmental malformation / mouth / jaw / cleft palate + developmental / developmental malformation / trunk / umbilical …"}, "[24]": {"settings": "group: developmental, developmental / developmental malformation / mouth / jaw / cleft palate + systemic / in life observation / body weight / fetal weight"}, "[25]": {"settings": "group: maternal, reproductive / offspring survival early / dead fetuses / dead fetuses"}}, "data": [{"smiles": "CC[C@H](NC(=O)c1cc(F)ccc1[N-]S(=O)(=O)c1cccc2cccnc12)c1ccccc1.[Na+]", "note": "[AVE3295]", "values": [{"measurement": "LOAEL", "setting": "dog [1]; [11]", "value": "> 300", "unit": "mg/kg/day"}, {"measurement": "NOAEL", "setting": "dog [1]; [11]", "value": "≥ 300", "unit": "mg/kg/day"}, {"measurement": "LEL", "setting": "dog [1]; [12]", "value": 10, "unit": "mg/kg/day"}, {"measurement": "NEL", "setting": "dog [1]; [12]", "value": "< 10", "unit": "mg/kg/day"}, {"measurement": "LOAEL", "setting": "primate; [13]", "value": "> 1000", "unit": "mg/kg/day"}, {"measurement": "NOAEL", "setting": "primate; [13]", "value": "≥ 1000", "unit": "mg/kg/day"}, {"measurement": "LEL", "setting": "primate; [14]", "value": 60, "unit": "mg/kg/day"}, {"measurement": "NEL", "setting": "primate; [14]", "value": "< 60", "unit": "mg/kg/day"}, {"measurement": "LOAEL", "setting": "dog [2]; [15]", "value": 5, "unit": "mg/kg/day"}, {"measurement": "NOAEL", "setting": "dog [2]; [15]", "value": 1, "unit": "mg/kg/day"}, {"measurement": "LEL", "setting": "dog [2]; [16]", "value": 1, "unit": "mg/kg/day"}, {"measurement": "NEL", "setting": "dog [2]; [16]", "value": "< 1", "unit": "mg/kg/day"}, {"measurement": "LEL", "setting": "rabbit", "value": 1000, "unit": "mg/kg/day"}, {"measurement": "LOAEL", "setting": "rabbit", "value": "> 1000", "unit": "mg/kg/day"}, {"measurement": "NEL", "setting": "rabbit", "value": 250, "unit": "mg/kg/day"}, {"measurement": "NOAEL", "setting": "rabbit", "value": "≥ 1000", "unit": "mg/kg/day"}, {"measurement": "LEL", "setting": "rat [3]", "value": 2000, "unit": "mg/kg/day"}, {"measurement": "LOAEL", "setting": "rat [3]", "value": "> 2000", "unit": "mg/kg/day"}, {"measurement": "NEL", "setting": "rat [3]", "value": 315, "unit": "mg/kg/day"}, {"measurement": "NOAEL", "setting": "rat [3]", "value": "≥ 2000", "unit": "mg/kg/day"}]}, {"smiles": "COc1nc(NC(C)C)nc(NC(C)C)n1", "note": "[Prometon]", "values": [{"measurement": "LOAEL", "setting": "mouse [4]; [17]", "value": 737, "unit": "mg/kg/day"}, {"measurement": "NEL", "setting": "mouse [4]; [17]", "value": 1.7, "unit": "mg/kg/day"}, {"measurement": "NOAEL", "setting": "mouse [4]; [17]", "value": 70, "unit": "mg/kg/day"}, {"measurement": "LEL", "setting": "mouse [4]; systemic / pathology microscopic / spleen / depletion", "value": 70, "unit": "mg/kg/day"}, {"measurement": "LEL", "setting": "rat [5]; [18]", "value": 35.1, "unit": "mg/kg/day"}, {"measurement": "LOAEL", "setting": "rat [5]; [18]", "value": 35.1, "unit": "mg/kg/day"}, {"measurement": "NEL", "setting": "rat [5]; [18]", "value": 1.45, "unit": "mg/kg/day"}, {"measurement": "NOAEL", "setting": "rat [5]; [18]", "value": 1.45, "unit": "mg/kg/day"}, {"measurement": "LEL", "setting": "rat [5]; [19]", "value": 35.1, "unit": "mg/kg/day"}, {"measurement": "LOAEL", "setting": "rat [5]; [19]", "value": 35.1, "unit": "mg/kg/day"}, {"measurement": "NEL", "setting": "rat [5]; [19]", "value": 1.45, "unit": "mg/kg/day"}, {"measurement": "NOAEL", "setting": "rat [5]; [19]", "value": 1.45, "unit": "mg/kg/day"}, {"measurement": "LEL", "setting": "rat [6]; [20]", "value": 23.3, "unit": "mg/kg/day"}, {"measurement": "LOAEL", "setting": "rat [6]; [20]", "value": 23.3, "unit": "mg/kg/day"}, {"measurement": "NEL", "setting": "rat [6]; [21]", "value": 0.89, "unit": "mg/kg/day"}, {"measurement": "NOAEL", "setting": "rat [6]; [21]", "value": 0.89, "unit": "mg/kg/day"}]}, {"smiles": "CN(C)[C@@H]1C(=O)C(C(N)=O)=C(O)[C@@]2(O)C(=O)C3=C(O)c4c(O)cccc4[C@@](C)(O)[C@H]3C[C@@H]12.Cl", "note": "[Tetracycline hydrochloride]", "values": [{"measurement": "LOAEL", "setting": "rat [7]; systemic / pathology microscopic / liver / clear cell focus + systemic / pathology microscopic / liver / cytoplasmic alteration", "value": 910, "unit": "mg/kg/day"}, {"measurement": "NOAEL", "setting": "rat [7]; systemic / pathology microscopic / liver / clear cell focus + systemic / pathology microscopic / liver / cytoplasmic alteration + systemic…", "value": 440, "unit": "mg/kg/day"}, {"measurement": "LEL", "setting": "rat [7]; [22]", "value": 440, "unit": "mg/kg/day"}, {"measurement": "NEL", "setting": "rat [7]; [22]", "value": "< 440", "unit": "mg/kg/day"}, {"measurement": "LEL", "setting": "mouse [8]", "value": 1500, "unit": "mg/kg/day"}, {"measurement": "LOAEL", "setting": "mouse [8]", "value": 1500, "unit": "mg/kg/day"}, {"measurement": "NEL", "setting": "mouse [8]", "value": "< 1500", "unit": "mg/kg/day"}, {"measurement": "NOAEL", "setting": "mouse [8]", "value": "< 1500", "unit": "mg/kg/day"}]}, {"smiles": "CC1(C)O[C@@H]2C[C@H]3[C@@H]4CCC5=CC(=O)C=C[C@]5(C)[C@@]4(F)[C@@H](O)C[C@]3(C)[C@]2(C(=O)CO)O1", "note": "[Triamcinolone acetonide]", "values": [{"measurement": "LOAEL", "setting": "rat [9]; [23]", "value": "> 5", "unit": "mg/kg/day"}, {"measurement": "NOAEL", "setting": "rat [9]; [23]", "value": "≥ 5", "unit": "mg/kg/day"}, {"measurement": "LEL", "setting": "rat [9]; [24]", "value": 0.5, "unit": "mg/kg/day"}, {"measurement": "NEL", "setting": "rat [9]; [24]", "value": "< 0.5", "unit": "mg/kg/day"}, {"measurement": "LEL", "setting": "rat [9]; [25]", "value": 2.5, "unit": "mg/kg/day"}, {"measurement": "LOAEL", "setting": "rat [9]; [25]", "value": "> 5", "unit": "mg/kg/day"}, {"measurement": "NEL", "setting": "rat [9]; [25]", "value": 0.5, "unit": "mg/kg/day"}, {"measurement": "NOAEL", "setting": "rat [9]; [25]", "value": "≥ 5", "unit": "mg/kg/day"}, {"measurement": "LEL", "setting": "rat [10]", "value": 0.5, "unit": "mg/kg/day"}, {"measurement": "LOAEL", "setting": "rat [10]", "value": "> 0.5", "unit": "mg/kg/day"}, {"measurement": "NEL", "setting": "rat [10]", "value": "< 0.5", "unit": "mg/kg/day"}, {"measurement": "NOAEL", "setting": "rat [10]", "value": "≥ 0.5", "unit": "mg/kg/day"}]}]}
